In patent US20180072997A1, “INHIBITORS OF HUMAN IMMUNODEFICIENCY VIRUS REPLICATION” (ViiV HEATHCARE UK (NO.5) LIMITED, priority 2015, published 2018):

What was measured:
[1] = tested on: recombinant NL4-3 virus (Renilla luciferase in nef) in MT-2 cells; test: whole plant or invertebrate; format: cell-based, HIV; conditions: luciferase activity
In short: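 MT-2 cells infected for 4-5 days with NL4-3 reporter virus (Renilla luciferase replacing part of nef, produced by transfection of 293T cells) in the presence of serial compound dilutions. Antiviral activity quantified by luciferase activity read with a live-cell substrate.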

uninfected MT2 cells = test: Compound cytotoxicity, XTT-based colorimetric assay; format: cell-based; conditions: day 4, XTT
In short: (§1)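 Run under the antiviral-assay protocol but without virus. Viability was read on day 4 and CC50 values were derived from the readout.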

[2] = as above; format: cell-based; conditions: human, uninfected MT2 cells, day 4, XTT
In short: as §1

[3] = MT-2 cells infected for 4-5 days with recombinant NL4-3 Renilla luciferase virus
[4] = Renilla, NL43, MT-2 cells infected for 4-5 days with recombinant NL4-3 Renilla luciferase virus

| SMILES | EC50 [1, 3] [µM] | CC50 (uninfected MT2 cells) [µM] | EC50 [1, 4] [µM] | CC50 at 4 days [2] [µM] |
| --- | --- | --- | --- | --- |
| COc1ccc(N(C)C(=O)[C@H](Cc2cc(F)cc(F)c2)NC(=O)C(C)n2c(=O)n(C(C)C(=O)N[C@@H](Cc3cc(F)cc(F)c3)C(=O)N(C)c3ccc(OC)cc3)c3ccccc32)cc1 (single isomer, unassigned) [Example 133] | 0.41 | 13.9 |  |  |
| COc1ccc(N(C)C(=O)[C@H](Cc2ccccc2)NC(=O)C=C(C)CC(=O)N[C@@H](Cc2ccccc2)C(=O)N(C)c2ccc(OC)cc2)cc1 (single isomer, unassigned) [Example 114] | 1.78 | 27.1 |  |  |
| COc1ccc(N(C)C(=O)[C@H](Cc2ccccc2)NC(=O)C(C)n2c(=O)n(C(C)C(=O)N[C@@H](Cc3ccccc3)C(=O)N(C)c3ccc(OC)cc3)c3ccccc32)cc1 (single isomer, unassigned) [Example 134] | 0.82 | 10.8 |  |  |
| C=CCCN(C(=O)[C@H](Cc1cc(F)cc(F)c1)NC(=O)NS(=O)(=O)N[C@@H](Cc1cc(F)cc(F)c1)C(=O)N(CCC=C)c1ccc2scnc2c1)c1ccc2scnc2c1 (single isomer, unassigned) [Example 142] | 0.82 | 17.4 |  |  |
| CCOc1ccc(N(CC)C(=O)[C@H](Cc2ccccc2)NC(=O)NS(=O)(=O)N[C@@H](Cc2ccccc2)C(=O)N(CC)c2ccc(OCC)cc2)cc1 [Example 5] |  |  | 0.15 | ≥ 33.3 |
| CN(C(=O)[C@H](Cc1cc(F)cc(F)c1)NC(=O)NS(=O)(=O)N[C@@H](Cc1cc(F)cc(F)c1)C(=O)N(C)c1ccc(Cl)cc1)c1ccc(Cl)cc1 [Example 165] |  |  | 0.04 | 30.3 |
| Cc1ccc(N(C)C(=O)[C@H](Cc2cc(F)cc(F)c2)NC(=O)CN2c3ccccc3N(CC(=O)N[C@@H](Cc3cc(F)cc(F)c3)C(=O)N(C)c3ccc(C)nc3)S2(=O)=O)cn1 [Example 195] |  |  | 0.02 | 54 |
| COc1ccc(N(C)C(=O)[C@H](Cc2ccccc2)NC(=O)c2nc[nH]c2C(=O)N[C@@H](Cc2ccccc2)C(=O)N(C)c2ccc(OC)cc2)cc1 [Example 59] |  |  | 3.34 | 11 |
| COc1ccc(N(C)C(=O)[C@H](Cc2ccccc2)NC(=O)Cn2c(=O)c(=O)n(CC(=O)N[C@@H](Cc3ccccc3)C(=O)N(C)c3ccc(OC)cc3)c3ccccc32)cc1 [Example 94] |  |  | 0.16 | 23.2 |
| COc1ccc(N(C)C(=O)[C@H](Cc2ccccc2)NC(=O)NS(=O)(=O)N[C@@H](Cc2ccccc2)C(=O)N(C)c2cc(C)c(OC)cc2C)cc1 [Example 15] |  |  | 4.22 | 35.3 |
| COc1ccc(N(C)C(=O)[C@H](Cc2ccccc2)NC(=O)C(C)(C)C(=O)N[C@@H](Cc2ccccc2)C(=O)N(C)c2ccc(OC)cc2)cc1 [Example 4] |  |  | 1.87 | ≥ 100 |
| C=CCN(C(=O)[C@H](Cc1cc(F)cc(F)c1)NC(=O)CCC(=O)N[C@@H](Cc1cc(F)cc(F)c1)C(=O)N(CC=C)c1ccc(OC)cc1)c1ccc(OC)cc1 [Example 170] |  |  | 7.66 | 28.4 |
| Cc1cc(C(=O)N[C@@H](Cc2cc(F)cc(F)c2)C(=O)N(C)c2ccc3scnc3c2)cc(C(=O)N[C@@H](Cc2cc(F)cc(F)c2)C(=O)N(C)c2ccc3scnc3c2)c1 [Example 127] |  |  | 0.01 | 3.8 |
| CN(C(=O)[C@H](Cc1ccccc1)NC(=O)c1ccc(F)c(C(=O)N[C@@H](Cc2ccccc2)C(=O)N(C)c2ccc3scnc3c2)c1)c1ccc2scnc2c1 [Example 169] |  |  | 0.06 | 4.5 |
| COc1ccc(N(C)C(=O)[C@H](Cc2cc(F)cc(F)c2)NC(=O)CS(=O)(=O)N[C@@H](Cc2cc(F)cc(F)c2)C(=O)N(C)c2ccc(OC)cc2)cc1 [Example 64] |  |  | 0.38 | 11.3 |
| COc1ccc(N(C)C(=O)[C@H](Cc2ccccc2)NC(=O)Cn2c(=O)n(CC(=O)N[C@@H](Cc3ccccc3)C(=O)N(C)c3ccc(OC)cc3)c3cc([N+](=O)[O-])ccc32)cc1 [Example 87] |  |  | 0.09 | 11.1 |
| COc1ccc(N(C)C(=O)[C@H](Cc2ccccc2)Nc2ccnc(N[C@@H](Cc3ccccc3)C(=O)N(C)c3ccc(OC)cc3)n2)cc1 [Example 145] |  |  | 12 | 19.1 |
| CN(C(=O)[C@H](Cc1cc(F)cc(F)c1)NC(=O)NS(=O)(=O)N[C@@H](Cc1cc(F)cc(F)c1)C(=O)N(C)c1ccc2nccnc2c1)c1ccc2nccnc2c1 [Example 203] |  |  | 30.4 | ≥ 100 |
| COc1ccc(N(C)C(=O)[C@H](Cc2cc(F)cc(F)c2)NC(=O)c2ccc(F)c(C(=O)N[C@@H](Cc3cc(F)cc(F)c3)C(=O)N(C)c3ccc(OC)nc3)c2)cn1 [Example 196] |  |  | 0.37 | ≥ 100 |
| CN(C(=O)[C@H](Cc1cc(F)cc(F)c1)NC(=O)c1cncc(C(=O)N[C@@H](Cc2cc(F)cc(F)c2)C(=O)N(C)c2ccc3scnc3c2)c1)c1ccc2scnc2c1 [Example 129] |  |  | 0.01 | 5.3 |
| NC(=O)c1cc(-c2cccnc2[C@H](Cc2cc(F)cc(F)c2)NC(=O)NS(=O)(=O)N[C@@H](Cc2cc(F)cc(F)c2)c2ncccc2-c2ccc(F)c(C(N)=O)c2)ccc1F [Example 70] |  |  | 0.15 | ≥ 100 |
| COc1ccc(N(C)C(=O)[C@H](Cc2cc(F)cc(F)c2)NC(=O)c2cc(Cl)c(Cl)cc2C(=O)N[C@@H](Cc2cc(F)cc(F)c2)C(=O)N(C)c2ccc(OC)cc2)cc1 [Example 255] |  |  | 0.08 | 10 |
| COc1ccc(N(C)C(=O)[C@H](Cc2ccccc2)NC(=O)NS(=O)(=O)N[C@@H](Cc2cc(F)cc(F)c2)C(=O)N(C)c2ccc(OC)cc2)cc1 [Example 44] |  |  | 0.02 | 67 |
| COc1ccc(N(C)C(=O)[C@H](Cc2ccccc2)Nc2nc(N)nc(N[C@@H](Cc3ccccc3)C(=O)N(C)c3ccc(OC)cc3)n2)cc1 [Example 124] |  |  | 3.8 | 31 |
| COc1ccc(N(C)C(=O)[C@H](Cc2ccccc2)NC(=O)CN(CCO)CC(=O)N[C@@H](Cc2ccccc2)C(=O)N(C)c2ccc(OC)cc2)cc1 [Example 29] |  |  | 2.49 | 31.8 |
| COc1ccc(N(C)C(=O)[C@H](Cc2ccccc2)NC(=O)c2cc(C(=O)N[C@@H](Cc3ccccc3)C(=O)N(C)c3ccc(OC)cc3)[nH]n2)cc1 [Example 57] |  |  | 1.58 | 3.5 |
| C=CCN(C(=O)[C@H](Cc1cc(F)cc(F)c1)NS(=O)(=O)CS(=O)(=O)N[C@@H](Cc1cc(F)cc(F)c1)C(=O)N(CC=C)c1ccc(OC)cc1)c1ccc(OC)cc1 [Example 163] |  |  | 2.56 | ≥ 100 |
| CN(C(=O)[C@H](Cc1cc(F)cc(F)c1)NC(=O)NS(=O)(=O)N[C@@H](Cc1cc(F)cc(F)c1)C(=O)N(C)c1cnc2scnc2c1)c1cnc2scnc2c1 [Example 226] |  |  | 8.92 | ≥ 100 |
